Data taken from patent US11872230B2, “Method of treating a methionine-dependent cancer” (Agency for Science, Technology and Research, priority 2018, dated 2024).

Assays:
[1] = tested on: histone methylation in NIH 3T3 cells; assay: Western blot of methylated histones in NIH 3T3 cells; type: cell-based; settings: FIDAS5 treatment
Method: (§1) 1.5×10^6 cells were lysed in Llaemli-SDS buffer and then sonicated. Total protein concentration was measured by Bradford assay. Total cell lysates were separated by SDS-PAGE and transferred onto nitrocellulose, followed by blocking in 5% (v/v) milk in Tris-buffered saline in Tween 20, probing with the indicated antibodies and visualized by chemiluminescence (Roche). Primary antibodies used were anti-β-Actin (sc-47778), anti-GAPDH (sc-32233) from Santa Cruz: anti-GLDC (ab97625), anti-H3 (ab1791), anti-H3 (dimethylK36) (ab9049), anti-MAT2A (ab77471), anti-MTR (ab9209), anti-H3 (trimethylK79) (ab2621), anti-MTHFR (ab125707), anti-MTAP (ab ab55517) from Abcam; anti-H3(trimethyl K4) (39159), anti-H3(trimethyl K27)(39155), anti-H3(trimethylK36)(61101) and anti-H3(trimethylK9)(39765) from Active Motif; anti-β-catenin (BD610154) from BD Biosciences; anti-SHMT2 (HPA020549) and anti-SAHH (WH0000191M8) from Sigma; anti-Symmetric Di-Methyl Arginine Motif (13222) from CST.

TS cells [2] = assay: Apoptosis assay (Annexin V/PI) of inhibitor treated TS cells; type: cell-based, human; settings: transient exposure
From the text: 10^6 cells were stained with FITC Annexin V and PI, and analysed for apoptosis by flow cytometry using an LSRII Cell Analyzer (BD) according to manufacturer's instructions.

[3] = tested on: CD166 expression in TS cells; assay: CD166 staining of TS cells by flow cytometry; type: cell-based, human; settings: FIDAS vs DMSO
TS cells (lung TICs) [4] = assay: Intraperitoneal administration to NSG mice subcutaneously implanted with lung TICs; type: in vivo; settings: FIDAS5 40 mg/kg i.p., three consecutive days, after 6 weeks
From the text: (§2) 5×10^5 single cells were mixed in a 1:1 mixture of serum free DMEM/F12 and Matrigel (BD) and injected subcutaneously into the flanks of 4-6 week old male and female NOD.Cg-Prkdc^scid Il2rg^tm1wjl SzJ (Jackson Laboratories). About 6 weeks later, or when tumor sizes exceed 2 cm in length, mice were sacrificed and tumors harvested for analysis. All animal experiments were approved by the Agency for Science Technology and Research Singapore—Biological Resource Centre. Mice were randomized by sex.
(§3) Since FIDAS5 appeared to more specifically disrupt the methionine cycle and inhibit cellular methylation activities compared to D9, it was sought to test whether its systemic delivery could impact the tumorigenic potential of TS cells. These highly tumorigenic cells were first subcutaneously implanted into NSG mice and FIDAS5 (40 mg/kg) or corn oil carrier was immediately administered via intraperitoneal injection for three consecutive days. After 6 weeks, mice transiently treated with FIDAS5 produced tumors that were much smaller than carrier-treated controls. […] To exclude the possibility of general cytotoxicity associated with the inhibitor on TS cells, TS cell-implanted NSG mice were treated with cisplatin (4 mg/kg), a frontline chemotherapeutic agent that broadly target bulk cancer cells in NSCLC tumors, in the same manner (FIG. 5i). […]

[5] = tested on: histone methylation in Adh cells; assay: Western blot of methylated histones in Adh cells; type: cell-based, human; settings: FIDAS5 treatment
Method: as §1

TS cells [6] = assay: Orthotopically implanted GFP-expressing TS cells in lungs of NSG mice; type: in vivo; settings: orthotopic TS cells, transient treatment for 3 days, 5 weeks post implantation
From the text: GFP expressing 1.5×10^6 single TS cells (transduced with PLL3.7 vector) with suspended in tumor sphere media and injected intravenously through tail-vein into 4-6 week old male and female NOD.Cg-Prkdc^scid Il2rg^tm1wjl SWJ (Jackson Laboratories) mice. Mice were continuously monitored and then sacrificed at 5 weeks post injection. Lungs were harvested, fixed in 4% paraformaldehyde and embedded in paraffin for subsequent analysis. Anti-GFP (ab13970) antibody from Abcam and Alexa-Fluor Goat 488 anti-Chicken antibody (A-11039; ThermoFisher) was used to visualize and quantify GFP-positive lesions using immunofluorescence protocol outlined above. Mice were randomized by sex.
Since FIDAS5 appeared to more specifically disrupt the methionine cycle and inhibit cellular methylation activities compared to D9, it was sought to test whether its systemic delivery could impact the tumorigenic potential of TS cells. These highly tumorigenic cells were first subcutaneously implanted into NSG mice and FIDAS5 (40 mg/kg) or corn oil carrier was immediately administered via intraperitoneal injection for three consecutive days. After 6 weeks, mice transiently treated with FIDAS5 produced tumors that were much smaller than carrier-treated controls. […]

TS cells (lung TICs) [7] = assay: Soft agar colony formation of pre-treated TS cells; type: cell-based, human; settings: TS cells treated 48 h with inhibitor prior to soft agar assay
Method: 2.5 ml lower layer of 0.7% agar in complete DMEM/F12 with 10% fetal bovine serum was placed in 3 wells of a 6 well dish, and permitted to solidify. 2×10^4 Cells (for 3 wells) were then suspended in a 2 ml layer of 0.35% agar in complete DMEM/F12 with 10% fetal bovine serum and layered on top of the bottom layer. Colonies were stained with crystal violet and counted after approximately 2 months.
(§4) To evaluate the methionine cycle as a therapeutic target in lung TICs, small molecule inhibitors that target enzymes within this pathway were employed, mimicking the effects of short-term methionine starvation (FIG. 5a). two inhibitors known to perturb methionine cycle activity and cellular methylation levels: 1) MAT2A inhibitor, FIDAS5; and 2) SAHH inhibitor, D9, which is an analog of DZNep. In a manner similar to amino acid starvation studies, TS cells were exposed transiently to the compounds for 48 h in culture and were immediately used for downstream tumorigenesis assays.

Adh cells = assay: Proliferation of Adh cells grown in FIDAS5-containing media; type: cell-based, human
Method: (§5) Cells were seeded into 96-well plates at a density of 2,000 cells/well for TS cells and 500 cells/well for Adh cells. The relative number of viable cells was determined by the quantification of ATP using the CellTiter-Glo Luminescent Cell Viability Assay (Promega) system.

[8] = tested on: lung patient-derived xenograft (PDX) cells A139, A233; assay: Patient-derived lung tumor xenografts (PDX) in NSG mice; type: in vivo; settings: two PDX lines, FIDAS5 40 mg/kg for three days after implantation, six weeks
From the text: as §2, §3

[9] = tested on: histone methylation in TS cells; assay: Western blot of methylated histones in TS cells; type: cell-based, human; settings: TS cells exposed transiently (48 h) to inhibitor
Method: as §1, §4

[10] = tested on: cancer cell lines with high or low MAT2A expression; assay: Proliferation of cancer cell lines grown in FIDAS5 containing medium; type: cell-based; settings: 10 uM
Method: as §5

[11] = tested on: non-neoplastic cell lines; assay: Proliferation of non-neoplastic (untransformed) cell lines in FIDAS5-containing media; type: cell-based
Method: as §5

CNc1ccc(/C=C/c2c(F)cccc2Cl)cc1 [FIDAS5]
histone methylation marks [1]: did not demonstrate reduction in histone methylation marks
apoptosis (TS cells [2]): did not negatively impact their long-term proliferation ability or trigger apoptosis
CD166 expression [3]: loss of CD166 expression
tumor size vs carrier-treated controls (TS cells (lung TICs) [4]): much smaller
histone methylation marks [5]: did not demonstrate reduction in histone methylation marks
number of pulmonary lesions (TS cells [6]): decreased number of pulmonary lesions
colony-forming ability (TS cells (lung TICs) [7]): severely diminished
proliferation in FIDAS5-containing media (Adh cells): far less affected
xenograft tumors smaller relative to sham-treated mice [8]: at least 6 fold
histone methylation levels [9]: complete ablation
growth upon FIDAS5 treatment ([10]; cancer cell lines expressing high MAT2A): dramatically hampered in their growth
growth upon FIDAS5 treatment ([10]; cancer cell lines expressing low MAT2A): largely insensitive
proliferation in FIDAS5-containing media [11]: far less affected
